molecular target: PDE10 (UniProt Q9Y233); test: PDE10 enzyme inhibition, IMAP TR-FRET assay (MPDE10A7 Enzyme Activity and Inhibition); type: biochemical; settings: IC50 class against PDE10; read-out: IC50
How it was run: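 PDE10A enzyme or tissue homogenate preincubated with compounds 30 min at room temperature, then fluorescein-labelled cAMP or cGMP added for 60 min. IMAP binding reagent stop, TR-FRET read. Values are mean IC50s, grouped into five potency classes.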

Row | Compound | IC50 [nM]
1 | O=C(c1ccc(Oc2nccnc2Oc2cccnc2)cc1)c1nc2ccccc2[nH]1 [Example 168, (1H-benzo[d]imidazol-2-yl)(4-(3-(pyridin-3-yloxy)pyrazin-2-yloxy)phenyl)methanone] | 100 to 250
2 | COc1cncc(-c2nccnc2Oc2ccc(C(=O)c3nc4ccccc4[nH]3)cc2)c1 [Example 118, (1H-benzo[d]imidazol-2-yl)(4-(3-(5-methoxypyridin-3-yl)pyrazin-2-yloxy)phenyl)methanone] | < 25
3 | COc1ncc(-c2nccnc2Oc2ccc(Nc3nc4ccccc4s3)cc2)cn1 [Example 144, N-(4-(3-(2-methoxypyrimidin-5-yl)pyrazin-2-yloxy)phenyl)benzo[d]thiazol-2-amine] | < 25
4 | CC(Cc1ccccn1)NC(=O)c1nccnc1Oc1ccc(C(=O)c2nc3ccccc3[nH]2)cc1 (racemic) [Example 259, (rac)-3-(4-(1H-benzo[d]imidazole-2-carbonyl)phenoxy)-N-(1-(pyridin-2-yl)propan-2-yl)pyrazine-2-carboxamide] | < 25
5 | Fc1ccc2sc(Nc3ccc(Oc4cnccn4)cc3)nc2c1 [Example 219, 5-fluoro-N-(4-(pyrazin-2-yloxy)phenyl)benzo[d]thiazol-2-amine] | 1000 to 5000
6 | CC(=O)N1CCC(c2nccnc2Oc2ccc(Nc3nc4ccccc4s3)cc2)C1 (centres unmarked) [Example 241, 1-(3-(3-(4-(benzo[d]thiazol-2-ylamino)phenoxy)pyrazin-2-yl)pyrrolidin-1-yl)ethanone] | < 25
7 | CC(=O)N1CCC(c2nccnc2Oc2ccc(C(=O)c3nc4ccccc4[nH]3)cc2)C1 (centres unmarked) [Example 240, 1-(3-(3-(4-(1H-benzo[d]imidazole-2-carbonyl)phenoxy)pyrazin-2-yl)pyrrolidin-1-yl)ethanone] | < 25
8 | COc1ncccc1-c1nccnc1Oc1ccc(C(O)c2nc3ccccc3[nH]2)cc1 (centres unmarked) [Example 229, (1H-BENZO[D]IMIDAZOL-2-YL)(4-(3-(2-METHOXYPYRIDIN-3-YL)PYRAZIN-2-YLOXY)PHENYL)METHANOL] | < 25
9 | Fc1cc(Oc2nccnc2C2CCOCC2)ccc1Nc1nc2ccccc2s1 [Example 215, N-(2-fluoro-4-(3-(terahydro-2H-pyran-4-yl)pyrazin-2-yloxy)phenyl)benzo[d]thiazol-2-amine] | < 25
10 | 1H-BENZIMIDAZOL-2-YL(4-((3-(CIS-4-HYDROXYCYCLOHEXYL)-2-PYRAZINYL)OXY)PHENYL)METHANONE AND 1H-BENZIMIDAZOL-2-YL(4-((3-(TRANS-4-HYDROXYCYCLOHEXYL)-2-PYRAZINYL)OXY)PHENYL)METHANONE [Example 188] | < 25
11 | O=C(c1ccc(Oc2nccnc2C(=O)NC2(Cc3ccccc3)CC2)cc1)c1nc2ccccc2[nH]1 [Example 260, 3-(4-(1H-benzo[d]imidazole-2-carbonyl)phenoxy)-N-(1-benzylcyclopropyl) pyrazine-2-carboxamide] | < 25
12 | O=C(c1ccc(Oc2nccnc2-c2ccc[nH]c2=O)cc1)c1nc2ccccc2[nH]1 [Example 106, 3-(3-(4-(1H-BENZO[D]IMIDAZOLE-2-CARBONYL)PHENOXY)PYRAZIN-2-YL)PYRIDIN-2(1H)-ONE] | < 25
13 | CC(=O)N1CC(c2nccnc2Oc2ccc(C(=O)c3nc4ccccc4[nH]3)cc2)C1 [Example 250, 1-(3-(3-(4-(1H-benzo[d]imidazole-2-carbonyl)phenoxy)pyrazin-2-yl)azetidin-1-yl)ethanone] | < 25
14 | CC(=O)N1CCC(c2nccnc2Oc2ccc(C(=O)c3nc4ccccc4n3C)cc2)CC1 [Example 242, 1-(4-(3-(4-(1-methyl-1H-benzo[d]imidazole-2-carbonyl)phenoxy)pyrazin-2-yl)piperidin-1-yl)ethanone] | < 25
15 | CC(=O)N1CCC(c2nccnc2Oc2ccc(Nc3nc4ccccc4s3)nc2)CC1 [Example 249, 1-(4-(3-(6-(benzo[d]thiazol-2-ylamino)pyridin-3-yloxy)pyrazin-2-yl)piperidin-1-yl)ethanone] | 250 to 1000
16 | CN1CCCC1CCOc1nccnc1Oc1ccc(C(=O)c2nc3ccccc3[nH]2)cc1 (centres unmarked) [Example 175] | 100 to 250
17 | O=C(c1ccc(Oc2nccnc2C2CCCOC2)cc1)c1nc2ccccc2[nH]1 (centres unmarked) [Example 186, 1H-benzimidazol-2-yl(4-((3-(tetrahydro-2H-pyran-3-yl)-2-pyrazinyl)oxy)phenyl)methanone] | < 25
18 | c1ccc2sc(Nc3ccc(Oc4nccnc4N4CCc5[nH]cnc5C4)cc3)nc2c1 [Example 80, N-(4-(3-(6,7-dihydro-1H-imidazo[4,5-c]pyridin-5(4H)-yl)pyrazin-2-yloxy)phenyl)-benzo[d]thiazol-2-amine] | 25 to 100
19 | CC(=O)N1CC=C(c2nccnc2Oc2ccc(C(=O)c3nc4ccccc4[nH]3)cc2)CC1 [Example 133, 1-(4-(3-(4-(1H-benzo[d]imidazole-2-carbonyl)phenoxy)pyrazin-2-yl)-5,6-dihydropyridin-1(2H)-yl)ethanone] | < 25
20 | COc1ncccc1-c1nccnc1Oc1ccc(C(=O)c2nc3ccccc3[nH]2)cc1 [Example 122, (1H-benzo[d]imidazol-2-yl)(4-(3-(2-methoxypyridin-3-yl)pyrazin-2-yloxy)phenyl)methanone] | < 25

same assay, conditions: PDE10 enzyme inhibition; average IC50 data for each compound; read-out: Average IC50

Row | Compound | IC50 [nM]
21 | CC(=O)N1CC(c2nccnc2Oc2ccc(C(=O)c3nc4ccccc4[nH]3)cc2)C1 [drawing 925] | 2.71
22 | Cc1cc(-c2nccnc2Oc2ccc(Nc3nc4ccccc4s3)cc2)ccn1 [drawing 750] | 17.5
23 | O=C(c1ccc(Oc2nccnc2OCc2ccccn2)cc1)c1nc2ccccc2[nH]1 [drawing 849] | 1710
24 | N#C[C@H]1CCN(c2nccnc2Oc2ccc(C(=O)c3nc4ccccc4[nH]3)cc2)C1 [drawing 829] | 1.32
25 | CC(C)(O)[C@@H]1CCCN1c1nccnc1Oc1ccc(Nc2nc3ccccc3s2)cc1 [drawing 737] | 60
26 | Cc1nnc2n1CCN(c1nccnc1Oc1ccc(C(=O)c3nc4ccccc4[nH]3)cc1)C2 | 6.03
27 | O=C(c1ccc(Oc2nccnc2C2CCSCC2)cc1)c1nc2ccccc2[nH]1 [drawing 932] | 1.85
28 | Cn1c(C(=O)c2ccc(Oc3nccnc3Cl)cc2)nc2ccccc21 | 187
29 | CN(C)CC(=O)N1CCC(c2nccnc2Oc2ccc(Nc3nc4ccccc4s3)cc2)CC1 [drawing 996] | 0.705
30 | Fc1cccc2nc(Nc3ccc(Oc4nccnc4Cl)cc3)sc12 [drawing 826] | 751
31 | O=C(c1ccc(Oc2nccnc2C(=O)NCCc2ccccn2)cc1)c1nc2ccccc2[nH]1 [drawing 795] | 8.08
32 | c1ccc2sc(Nc3ccc(Oc4nccnc4-c4ccc(N5CCOCC5)nc4)cc3)nc2c1 [drawing 762] | 78
33 | COc1ccccc1-c1nccnc1Oc1ccc(C(=O)c2nc3ccccc3[nH]2)cc1 [drawing 944] | 2.9
34 | O=C1CCC[C@@H](c2nccnc2Oc2ccc(Nc3nc4ccccc4s3)cc2)C1 [drawing 1002] | 1.12
35 | COc1ncccc1-c1nccnc1Oc1ccc(C(=O)c2nc3ccccc3n2C)cc1 [drawing 896] | 0.594
36 | COC(=O)c1ccc(-c2nccnc2Oc2ccc(C(=O)c3nc4ccccc4[nH]3)cc2)cc1 [drawing 758] | 33
37 | O=C(c1ccc(Oc2nccnc2OCc2cccnc2)cc1)c1nc2ccccc2[nH]1 [drawing 904] | 38.8
38 | OC1CCN(c2nccnc2Oc2ccc(Nc3nc4ccccc4s3)cc2)CC1 [drawing 717] | 8.17
39 | Cc1noc([C@@H]2CCN(c3nccnc3Oc3ccc(C(=O)c4nc5ccccc5[nH]4)cc3)C2)n1 (stereo in doubt) | 3.73
40 | N#CC1(c2nccnc2Oc2ccc(Nc3nc4ccccc4s3)cc2)CCOCC1 [drawing 867] | 4.46
41 | COc1ncccc1-c1nccnc1Oc1ccc(Nc2nc3ccc(F)cc3s2)cc1 [drawing 959] | 7.2
42 | c1ccc2[nH]c(Nc3ccc(Oc4nccnc4C4CCOCC4)cc3)nc2c1 [drawing 863] | 0.101
43 | CC(=O)N1CC[C@@H](c2nccnc2Oc2ccc(Nc3nc4ccccc4s3)cc2)C1 (stereo in doubt) | 1.82
44 | O=C(c1ccc(Oc2nccnc2-c2cccc3ncccc23)cc1)c1nc2ccccc2[nH]1 [drawing 803] | 3.18
45 | CC(=O)N1CCC(c2nccnc2Oc2ccc(Nc3nc4ccccc4s3)cc2F)CC1 [drawing 984] | 1.12
46 | COC(=O)C1CN(c2nccnc2Oc2ccc(Nc3nc4ccccc4s3)cc2)C1 [drawing 722] | 8.4
47 | Fc1ccc2nc(Nc3ccc(Oc4nccnc4Cl)cc3)sc2c1 [drawing 833] | 538
48 | O=C(c1ccc(Oc2nccnc2N2CC[C@H](CO)C2)cc1)c1nc2ccccc2[nH]1 | 2.54

same assay, conditions: PDE10 enzyme inhibition; chiral compounds separated from racemic mixtures; read-out: IC50

Row | Compound | IC50 [nM]
49 | O=C(c1ccc(Oc2nccnc2[C@@H]2CCC[C@@H](O)C2)cc1)c1nc2ccccc2[nH]1 (stereo in doubt) [Example 274, (1H-benzo[d]imidazol-2-yl)(4-(3-((1R,3R)-3-hydroxycyclohexyl)pyrazin-2-yloxy)phenyl) methanone] | < 25
50 | CCOC(=O)[C@@H]1CCCN(c2nccnc2Oc2ccc(C(=O)c3nc4ccccc4[nH]3)cc2)C1 [Example 263, (R)-ethyl 1-(3-(4-(1H-benzo[d]imidazole-2-carbonyl)phenoxy)pyrazin-2-yl)piperidine-3-carboxylate] | < 25
51 | C[C@@H](F)C(=O)N1CCC(c2nccnc2Oc2ccc(Nc3nc4ccccc4s3)cc2)CC1 [Example 279, (R)-1-(4-(3-(4-(benzo[d]thiazol-2-ylamino)phenoxy)pyrazin-2-yl)piperidin-1-yl)-2-fluoropropan-1-one] | < 25
52 | O[C@@H]1CCC[C@H](c2nccnc2Oc2ccc(Nc3nc4ccccc4s3)cc2)C1 [Example 272, (1R,3S)-3-(3-(4-(benzo[d]thiazol-2-ylamino)phenoxy)pyrazin-2-yl)cyclohexanol] | < 25
53 | O[C@H]1CCC[C@@H](c2nccnc2Oc2ccc(Nc3nc4ccccc4s3)cc2)C1 [Example 271, (1S,3R)-3-(3-(4-(benzo[d]thiazol-2-ylamino)phenoxy)pyrazin-2-yl)cyclohexanol] | < 25
